Columns and labels:
[1] = target: Progesterone receptor (Rattus norvegicus, UniProt Q63449); assay: Binding affinity to progesterone receptor
[2] = target: T1, Glucocorticoid receptor (Rattus norvegicus, UniProt P06536); assay: Binding affinity to rat glucocorticoid receptor
T1 sequence (P06536 whole entry): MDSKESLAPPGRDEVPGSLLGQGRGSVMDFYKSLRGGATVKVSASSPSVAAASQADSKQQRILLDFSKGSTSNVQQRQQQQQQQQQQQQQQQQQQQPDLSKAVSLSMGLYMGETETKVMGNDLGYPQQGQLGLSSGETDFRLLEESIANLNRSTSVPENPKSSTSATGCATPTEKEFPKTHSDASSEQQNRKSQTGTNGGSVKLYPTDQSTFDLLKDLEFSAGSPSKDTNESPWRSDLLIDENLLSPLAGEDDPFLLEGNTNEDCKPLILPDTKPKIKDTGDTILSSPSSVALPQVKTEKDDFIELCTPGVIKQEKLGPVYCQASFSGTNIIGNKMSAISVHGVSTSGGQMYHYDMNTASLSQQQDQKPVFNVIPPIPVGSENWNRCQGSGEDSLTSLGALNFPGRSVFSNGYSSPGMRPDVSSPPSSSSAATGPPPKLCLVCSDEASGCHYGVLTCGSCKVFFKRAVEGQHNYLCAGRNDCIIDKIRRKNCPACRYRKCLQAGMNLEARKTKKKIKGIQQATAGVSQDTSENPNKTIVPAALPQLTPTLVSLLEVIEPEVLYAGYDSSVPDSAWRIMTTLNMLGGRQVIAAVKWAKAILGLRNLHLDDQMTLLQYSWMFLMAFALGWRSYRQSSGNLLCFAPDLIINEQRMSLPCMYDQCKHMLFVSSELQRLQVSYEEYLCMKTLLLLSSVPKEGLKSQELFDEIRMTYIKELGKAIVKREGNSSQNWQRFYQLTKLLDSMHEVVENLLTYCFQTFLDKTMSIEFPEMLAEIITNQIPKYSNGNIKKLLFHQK

Chain of Progesterone receptor (Q63449 whole entry): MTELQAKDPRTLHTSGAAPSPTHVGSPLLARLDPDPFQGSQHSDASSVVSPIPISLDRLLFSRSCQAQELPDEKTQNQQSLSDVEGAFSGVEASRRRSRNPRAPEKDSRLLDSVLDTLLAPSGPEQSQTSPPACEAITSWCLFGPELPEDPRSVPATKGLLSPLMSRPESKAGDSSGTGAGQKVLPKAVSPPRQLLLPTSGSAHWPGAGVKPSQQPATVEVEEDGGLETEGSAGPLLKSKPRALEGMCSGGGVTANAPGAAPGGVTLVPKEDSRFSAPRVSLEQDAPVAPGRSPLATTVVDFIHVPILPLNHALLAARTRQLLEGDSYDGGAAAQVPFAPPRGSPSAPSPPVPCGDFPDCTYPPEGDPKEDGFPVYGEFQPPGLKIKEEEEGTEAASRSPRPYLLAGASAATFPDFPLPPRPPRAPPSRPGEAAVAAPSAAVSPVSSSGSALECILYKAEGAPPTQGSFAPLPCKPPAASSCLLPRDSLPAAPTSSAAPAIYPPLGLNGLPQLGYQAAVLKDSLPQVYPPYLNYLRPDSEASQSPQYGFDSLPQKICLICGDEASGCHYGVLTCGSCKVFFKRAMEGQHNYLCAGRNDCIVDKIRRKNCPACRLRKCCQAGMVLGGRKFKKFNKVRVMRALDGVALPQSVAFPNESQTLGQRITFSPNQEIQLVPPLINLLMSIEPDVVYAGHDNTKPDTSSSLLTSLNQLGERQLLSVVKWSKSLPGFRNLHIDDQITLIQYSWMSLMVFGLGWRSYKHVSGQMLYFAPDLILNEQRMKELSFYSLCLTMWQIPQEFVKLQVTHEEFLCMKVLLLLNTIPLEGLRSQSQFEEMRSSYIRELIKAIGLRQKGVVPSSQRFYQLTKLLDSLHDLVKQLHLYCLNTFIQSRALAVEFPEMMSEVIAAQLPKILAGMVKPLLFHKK

EC50 [1]: 0.126 µM
EC50 [2]: 0.00794 µM
Structure (SMILES): C=CCC1Oc2cccc(OC)c2-c2ccc3c(c21)C(C)=CC(C)(C)N3 (configuration not stated) [AL-43]
